# What was measured:
# XANST = experiment: Pre-emergence soil-applied weed control, greenhouse (Example IV); format: in vivo, Xanthium strumarium L.
# Source text: (§1) Seeds or nutlets of the desired test plant species were planted in a soil matrix prepared by mixing a loam soil (32 percent silt, 23 percent clay, and 45 percent sand, with a pH of about 6.5 and an organic matter content of about 1.9 percent) and calcareous grit in an 80 to 20 ratio. The soil matrix was contained in plastic pots with a volume of 1 quart and a surface area of 83.6 square centimeters (cm^2).
# (§2) Treatments consisted of the benzyl ester of 4-amino-3-chloro-5-fluoro-6-(4-chloro-2-fluoro-3-methoxy-phenyl)pyridine-2-carboxylic acid (compound A) formulated as an SC (suspension concentrate) and various herbicidal components alone and in combination. Forms of compound A were applied on an acid equivalent basis.
# (§3) Other herbicidal components were applied on an acid equivalent or active ingredient basis and included the protoporphyrinogen oxidase (PPO)-inhibiting herbicides, flumioxazin formulated as Payload® and oxadiazon formulated as Ronstar® 50W.
# (§4) Treatment requirements were calculated based upon the rates being tested, the concentration of active ingredient or acid equivalent in the formulation, and a 12 mL application volume at a rate of 187 L/ha.
# (§5) For treatments comprised of formulated compounds, measured amounts of compounds were placed individually in 25 mL glass vials and diluted in a volume of 1.25% (v/v) Agri-Dex® crop oil concentrate (COC) to obtain 12× stock solutions. […] Application solutions were prepared by adding an appropriate amount of each stock solution (e.g., 1 mL) and diluted to the appropriate final concentrations with the addition of 10 mL of an aqueous mixture of 1.25% (v/v) COC so that the final spray solutions contained 1.25% (v/v) COC.
# (§6) All stock solutions and applications solutions were visually inspected for compound compatibility prior to application. Spray solutions were applied to the soil with an overhead Mandel track sprayer equipped with a 8002E nozzles calibrated to deliver 187 L/ha over an application area of 0.503 m^2 at a spray height of 18 inches (46 cm) above average pot height. Control pots were sprayed in the same manner with the solvent blank.
# The treated and control pots were placed in a greenhouse and top watered as needed. When required to ensure good germination and healthy plants, a fungicide treatment and/or other chemical or physical treatment was applied. The pots were maintained in a greenhouse with an approximate 14 hr photoperiod which was maintained at about 29° C. during the day and 26° C. during the night. […] After approximately 4 weeks, the condition of the test plants as compared with that of the untreated plants was determined visually and scored on a scale of 0 to 100 percent where 0 corresponds to no injury or growth inhibition and 100 corresponds to complete kill. […]
# ECHCG = experiment: Postemergence foliar-applied weed control, direct seeded rice, greenhouse (Example I); format: in vivo, Echinochloa crusgalli (L.) Beauv.
# PAPRH = experiment: Postemergence foliar herbicidal activity of mixtures in cereal crops, greenhouse (Example III); format: in vivo, Papaver rhoeas L.; conditions: foliar-applied
# Protocol: Seeds of the desired test plant species were planted in Sun Gro MetroMix® 306 planting mixture, which typically has a pH of 6.0 to 6.8 and an organic matter content of about 30 percent, in plastic pots with a surface area of 103.2 square centimeters (cm^2). When required to ensure good germination and healthy plants, a fungicide treatment and/or other chemical or physical treatment was applied. The plants were grown for 7-36 days in a greenhouse with an approximate 14 hour photoperiod which was maintained at about 18° C. during the day and about 17° C. during the night. Nutrients and water were added on a regular basis and supplemental lighting was provided with overhead metal halide 1000-Watt lamps as necessary. The plants were employed for testing when they reached the second or third true leaf stage.
# Treatments consisted of the benzyl ester of 4-amino-3-chloro-5-fluoro-6-(4-chloro-2-fluoro-3-methoxy-phenyl)pyridine-2-carboxylic acid (Compound A), formulated as an SC, a second cereal herbicide alone and then both in combination.
# Other herbicidal components were applied on an active ingredient basis and included PSII-inhibiting herbicides.
# Measured aliquots of benzyl ester of 4-amino-3-chloro-5-fluoro-6-(4-chloro-2-fluoro-3-methoxy-phenyl)pyridine-2-carboxylic acid (Compound A) were placed in 25 milliliter (mL) glass vials and diluted in a volume of 1.25% (v/v) Agri-Dex® crop oil concentrate to obtain stock solutions. Compound requirements are based upon a 12 mL application volume at a rate of 187 liters per hectare (L/ha). Spray solutions of the second cereal herbicide and experimental compound mixtures were prepared by adding the stock solutions to the appropriate amount of dilution solution to form 12 mL spray solution with active ingredients in two- and three-way combinations. Formulated compounds were applied to the plant material with an overhead Mandel track sprayer equipped with an 8002E nozzle calibrated to deliver 187 L/ha over an application area of 0.503 square meters (m^2) at a spray height of 18 inches (46 cm) above average plant canopy. Control plants were sprayed in the same manner with the solvent blank.
# The treated plants and control plants were placed in a greenhouse as described above and watered by sub-irrigation to prevent wash-off of the test compounds. After 20-22 days, the condition of the test plants as compared with that of the control plants was determined visually and scored on a scale of 0 to 100 percent where 0 corresponds to no injury and 100 corresponds to complete kill.
# (§7) Colby's equation was used to determine the herbicidal effects expected from the mixtures (Colby, S. R. 1967. Calculation of the synergistic and antagonistic response of herbicide combinations. Weeds 15:20-22.).
# (§8) The following equation was used to calculate the expected activity of mixtures containing two active ingredients, A and B: Expected=A+B−(A×B/100)
# CYPIR = experiment: Postemergence foliar-applied weed control, direct seeded rice, greenhouse (Example I); format: in vivo, Cyperus iria L.
# IPOHE [1] = experiment: Pre-emergence soil-applied weed control, greenhouse (Example IV); format: in vivo, Ipomoea hederacea (L.) Jacq.
# Source text: as §1, §2, §3, §4, §5, §6
# The treated and control pots were placed in a greenhouse and top watered as needed. When required to ensure good germination and healthy plants, a fungicide treatment and/or other chemical or physical treatment was applied. The pots were maintained in a greenhouse with an approximate 14 hr photoperiod which was maintained at about 29° C. during the day and 26° C. during the night. Nutrients (Peters® Excel 15-5-15 5-Ca 2-Mg) were applied in the irrigation solution as needed and water was added on a regular basis. Supplemental lighting was provided with overhead metal halide 1000-Watt lamps as necessary. After approximately 4 weeks, the condition of the test plants as compared with that of the untreated plants was determined visually and scored on a scale of 0 to 100 percent where 0 corresponds to no injury or growth inhibition and 100 corresponds to complete kill.
# as §7, §8
# IPOHE [2] = experiment: Postemergence foliar-applied weed control, direct seeded rice, greenhouse (Example I); format: in vivo, Ipomoea hederacea Jacq.; conditions: g ae/ha Compound A Benzyl Ester+g ai/ha oxadiazon: r33 17.5+0, r34 0+250, r35 17.5+250
# [3] = g ae/ha Compound A Benzyl Ester+g ai/ha carfentrazone-ethyl: r11 8.75+0, r12 0+3.5, r13 0+7, r14 0+14, r15 8.75+3.5, r16 8.75+7, r17 8.75+14
structure (smiles),measurement,setting,value
"COc1c(Cl)ccc(-c2nc(C(=O)OCc3ccccc3)c(Cl)c(N)c2F)c1F [Compound A Benzyl Ester, benzyl ester of 4-amino-3-chloro-5-fluoro-6-(4-chloro-2-fluoro-3-methoxy-phenyl)pyridine-2-carboxylic acid]",Visual Weed Control (%) - 29 DAA XANST Obs,XANST; 16 g ae/ha alone,0%
same,Visual Weed Control (%) - 29 DAA XANST Obs,XANST; 32 g ae/ha alone,5%
same,Visual Weed Control (%) - 21 DAA ECHCG Obs,ECHCG; [3],55%
same,Visual Weed Control (%) - 23 DAA ECHCG Obs,"ECHCG; g ae/ha Compound A Benzyl Ester+g ai/ha oxyfluorfen (SC): r25 4.38+0, r26 0+90, r27 0+180, r28 0+360, r29 4.38+90, r30 4.38+180, r31 4.38+360",40%
same,Visual Weed Control (%) - 21 DAA ECHCG Obs,"ECHCG; g ae/ha Compound A Benzyl Ester+g ai/ha pyraflufen-ethyl: r11 8+0, r12 0+5.3, r13 0+10.6, r14 8+5.3, r15 8+10.6",45%
same,Visual Weed Control (%) - 21 DAA PAPRH Obs,PAPRH; 5 g ai/ha alone,28%
same,Visual Weed Control (%) - 21 DAA PAPRH Obs,PAPRH; 10 g ai/ha alone,35%
same,Visual Weed Control (%) - 21 DAA CYPIR Obs,"CYPIR; g ae/ha Compound A Benzyl Ester+g ai/ha bifenox (Fox ®): r17 8+0, r18 0+180, r19 0+360, r20 0+720, r21 8+180, r22 8+360, r23 8+720",30%
same,Visual Weed Control (%) - 21 DAA CYPIR Obs,CYPIR; [3],85%
same,Visual Weed Control (%) - 21 DAA CYPIR Obs,"CYPIR; g ae/ha Compound A Benzyl Ester+g ai/ha oxyfluorfen (technical): r27 4.38+0, r28 0+90, r29 0+180, r30 0+360, r31 4.38+90, r32 4.38+180, r33 4.38+360",30%
same,Visual Weed Control (%) - 21 DAA CYPIR Obs,"CYPIR; g ae/ha Compound A Benzyl Ester+g ai/ha pyraflufen-ethyl: r17 8+0, r18 0+2.65, r19 0+5.3, r20 0+10.6, r21 8+2.65, r22 8+5.3, r23 8+10.6",35%
same,Visual Weed Control (%) - 20 DAA CYPIR Obs,"CYPIR; g ae/ha Compound A Benzyl Ester+g ai/ha saflufenacil: r38 4.38+0, r39 0+5, r40 0+10, r41 0+20, r42 4.38+5, r43 4.38+10, r44 4.38+20",70%
same,Visual Weed Control (%) - 32 DAA IPOHE Obs,IPOHE [1]; 8 g ae/ha alone,65%
same,Visual Weed Control (%) - 28 DAA IPOHE Obs,IPOHE [1]; 16 g ae/ha alone,13%
same,Visual Weed Control (%) - 32 DAA IPOHE Obs,IPOHE [1]; 16 g ae/ha alone,83%
same,Visual Weed Control (%) - 28 DAA IPOHE Obs,IPOHE [1]; 32 g ae/ha alone,23%
same,Visual Weed Control (%) - 21 DAA IPOHE Obs,IPOHE [2],10%
